{"source": "patent US12077503B2", "about": "“Substituted cyclic amides and their use as herbicides” (FMC CORPORATION, priority 2015, dated 2024)", "format_in_all_cases": "in vivo", "key": {"Kochia (Kochia scoparia) [1]": {"system": "Kochia (Kochia scoparia)", "test": "Test A postemergence", "conditions": "Bassia scoparia, post-emergence, 240 h", "outline": "(§1)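 Preemergence soil spray on seeded pots or post-emergence spray on 1–2 leaf plants, in loam–sand blend. Greenhouse ~10 d. Visual rating 0–100 against untreated plants.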"}, "[2]": {"system": "pigweed (Amaranthus retroflexus)", "test": "Test A postemergence", "conditions": "Amaranthus retroflexus, post-emergence, 240 h", "outline": "as §1"}, "[3]": {"system": "giant foxtail (Setaria faberii)", "test": "Test A postemergence", "conditions": "Setaria faberi, post-emergence, 240 h", "outline": "as §1"}, "[4]": {"system": "ragweed (common ragweed, Ambrosia elatior)", "test": "Test A postemergence", "conditions": "Ambrosia artemisiifolia, post-emergence, 240 h", "outline": "as §1"}, "[5]": {"system": "Galium (catchweed bedstraw, Galium aparine)", "test": "Test A postemergence", "conditions": "Galium, post-emergence, 240 h", "outline": "as §1"}, "[6]": {"system": "ryegrass, Italian (Italian ryegrass, Lolium multiflorum)", "test": "Test A postemergence", "conditions": "Lolium multiflorum, post-emergence, 240 h", "outline": "as §1"}, "corn (Zea mays)": {"system": "corn (Zea mays)", "test": "Test A postemergence", "conditions": "Zea mays, post-emergence, 240 h", "outline": "as §1"}, "[7]": {"system": "wheat (Triticum aestivum)", "test": "Test A postemergence", "conditions": "Triticum aestivum, post-emergence, 240 h", "outline": "as §1"}, "[8]": {"system": "blackgrass (Alopecurus myosuroides)", "test": "Test A postemergence", "conditions": "Alopecurus myosuroides, post-emergence, 240 h", "outline": "as §1"}, "[9]": {"system": "barnyardgrass (Echinochloa crus-galli)", "test": "Test B flooded paddy test", "conditions": "Echinochloa crus-galli, 250 g ai/ha, Flood; 0 to 100 scale where 0 is no effect and 100 is complete control; read-out: Barnyardgrass plant response rating", "outline": "(§2)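 Response scored visually against untreated controls, 0 = no effect and 100 = complete control, 13–15 d after treatment in the greenhouse. Compounds added to paddy water held 3 cm above soil surface. Treatment given at 2-leaf stage.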"}, "[10]": {"system": "sedge, umbrella (small-flower umbrella sedge, Cyperus difformis)", "test": "Test B flooded paddy test", "conditions": "Cyperus difformis, 250 g ai/ha, Flood; 0 to 100 scale where 0 is no effect and 100 is complete control; read-out: Sedge, Umbrella plant response rating", "outline": "as §2"}, "rice (Oryra sativa)": {"system": "rice (Oryra sativa)", "test": "Test B flooded paddy test", "conditions": "Oryza sativa, 250 g ai/ha, Flood; 0 to 100 scale where 0 is no effect and 100 is complete control; read-out: Rice plant response rating", "outline": "as §2"}, "[11]": {"system": "ducksalad (Heteranthera limosa)", "test": "Test B flooded paddy test", "conditions": "Heteranthera limosa, 250 g ai/ha, Flood; 0 to 100 scale where 0 is no effect and 100 is complete control; read-out: Ducksalad plant response rating", "outline": "as §2"}, "[12]": {"system": "barnyardgrass (Echinochloa crus-galli)", "test": "Test A preemergence", "conditions": "Echinochloa crus-galli, pre-emergence, 240 h, 0 to 100 scale where 0 is no effect and 100 is complete control, read-out: Barnyardgrass plant response rating", "outline": "as §1"}, "Kochia (Kochia scoparia) [13]": {"system": "Kochia (Kochia scoparia)", "test": "Test A preemergence", "conditions": "Bassia scoparia, pre-emergence, 240 h, 0 to 100 scale where 0 is no effect and 100 is complete control, read-out: Kochia plant response rating", "outline": "as §1"}, "[14]": {"system": "pigweed (Amaranthus retroflexus)", "test": "Test A preemergence", "conditions": "Amaranthus retroflexus, pre-emergence, 240 h, 0 to 100 scale where 0 is no effect and 100 is complete control, read-out: Pigweed plant response rating"}, "[15]": {"system": "giant foxtail (Setaria faberii)", "test": "Test A preemergence", "conditions": "Setaria faberi, pre-emergence, 240 h, 0 to 100 scale where 0 is no effect and 100 is complete control, read-out: Foxtail, Giant plant response rating", "outline": "as §1"}, "[16]": {"system": "ragweed (common ragweed, Ambrosia elatior)", "test": "Test A preemergence", "conditions": "Ambrosia artemisiifolia, pre-emergence, 240 h, 0 to 100 scale where 0 is no effect and 100 is complete control, read-out: Ragweed plant response rating", "outline": "as §1"}, "[17]": {"system": "ryegrass, Italian (Italian ryegrass, Lolium multiflorum)", "test": "Test A preemergence", "conditions": "Lolium multiflorum, pre-emergence, 240 h, 0 to 100 scale where 0 is no effect and 100 is complete control, read-out: Ryegrass, Italian plant response rating", "outline": "as §1"}, "[18]": {"conditions": "125 g ai/ha, preemergence, approx. 10 d"}}}
{"smiles": "CN1C[C@H](c2cc(C(F)F)cs2)[C@@H](C(=O)Nc2cccc(F)n2)C1=O", "note": "[Compound 1090]", "values": [{"measurement": "pest or weed control at 125 g/ha", "setting": "Kochia (Kochia scoparia) [1]; 125 g ai/ha, postemergence, visual injury on 0 to 100 scale (0 no effect, 100 complete control), approx. 10 d, read-out: Kochia plant response rating", "result": 30, "unit": "%"}, {"measurement": "pest or weed control at 31 g/ha", "setting": "Kochia (Kochia scoparia) [1]; Postemergence, 31 g ai/ha, visual injury after approx. 10 d, 0 to 100 scale, 0 no effect, 100 complete control, read-out: Plant response rating, Kochia", "result": 0, "unit": "%"}, {"measurement": "pest or weed control at 125 g/ha", "setting": "[2]; 125 g ai/ha, postemergence, visual injury on 0 to 100 scale (0 no effect, 100 complete control), approx. 10 d, read-out: Pigweed plant response rating", "result": 0, "unit": "%"}, {"measurement": "pest or weed control at 31 g/ha", "setting": "[2]; Postemergence, 31 g ai/ha, visual injury after approx. 10 d, 0 to 100 scale, 0 no effect, 100 complete control, read-out: Plant response rating, Pigweed", "result": 0, "unit": "%"}, {"measurement": "pest or weed control at 125 g/ha", "setting": "[3]; 125 g ai/ha, postemergence, visual injury on 0 to 100 scale (0 no effect, 100 complete control), approx. 10 d, read-out: Foxtail, Giant plant response rating", "result": 80, "unit": "%"}, {"measurement": "pest or weed control at 31 g/ha", "setting": "[3]; Postemergence, 31 g ai/ha, visual injury after approx. 10 d, 0 to 100 scale, 0 no effect, 100 complete control, read-out: Plant response rating, Foxtail, Giant", "result": 20, "unit": "%"}, {"measurement": "pest or weed control at 125 g/ha", "setting": "[4]; 125 g ai/ha, postemergence, visual injury on 0 to 100 scale (0 no effect, 100 complete control), approx. 10 d, read-out: Ragweed plant response rating", "result": 0, "unit": "%"}, {"measurement": "pest or weed control at 31 g/ha", "setting": "[4]; Postemergence, 31 g ai/ha, visual injury after approx. 10 d, 0 to 100 scale, 0 no effect, 100 complete control, read-out: Plant response rating, Ragweed", "result": 0, "unit": "%"}, {"measurement": "pest or weed control at 125 g/ha", "setting": "[5]; 125 g ai/ha, postemergence, visual injury on 0 to 100 scale (0 no effect, 100 complete control), approx. 10 d, read-out: Galium plant response rating", "result": 30, "unit": "%"}, {"measurement": "pest or weed control at 31 g/ha", "setting": "[5]; Postemergence, 31 g ai/ha, visual injury after approx. 10 d, 0 to 100 scale, 0 no effect, 100 complete control, read-out: Plant response rating, Galium", "result": 30, "unit": "%"}, {"measurement": "pest or weed control at 125 g/ha", "setting": "[6]; 125 g ai/ha, postemergence, visual injury on 0 to 100 scale (0 no effect, 100 complete control), approx. 10 d, read-out: Ryegrass, Italian plant response rating", "result": 0, "unit": "%"}, {"measurement": "pest or weed control at 31 g/ha", "setting": "[6]; Postemergence, 31 g ai/ha, visual injury after approx. 10 d, 0 to 100 scale, 0 no effect, 100 complete control, read-out: Plant response rating, Ryegrass, Italian", "result": 0, "unit": "%"}, {"measurement": "plant injury at 125 g/ha", "setting": "corn (Zea mays); 125 g ai/ha, postemergence, visual injury on 0 to 100 scale (0 no effect, 100 complete control), approx. 10 d, read-out: Corn plant response rating", "result": 20, "unit": "%"}, {"measurement": "Corn plant response rating (crop injury, 0 = no effect, 100 = complete kill) at 31 g/ha", "setting": "corn (Zea mays); Postemergence, 31 g ai/ha, visual injury after approx. 10 d, 0 to 100 scale, 0 no effect, 100 complete control", "result": 0, "unit": "%"}, {"measurement": "plant injury at 125 g/ha", "setting": "[7]; 125 g ai/ha, postemergence, visual injury on 0 to 100 scale (0 no effect, 100 complete control), approx. 10 d, read-out: Wheat plant response rating", "result": 20, "unit": "%"}, {"measurement": "plant injury at 31 g/ha", "setting": "[7]; Postemergence, 31 g ai/ha, visual injury after approx. 10 d, 0 to 100 scale, 0 no effect, 100 complete control, read-out: Plant response rating, Wheat", "result": 0, "unit": "%"}, {"measurement": "pest or weed control at 125 g/ha", "setting": "[8]; 125 g ai/ha, postemergence, visual injury on 0 to 100 scale (0 no effect, 100 complete control), approx. 10 d, read-out: Blackgrass plant response rating", "result": 20, "unit": "%"}, {"measurement": "pest or weed control at 31 g/ha", "setting": "[8]; Postemergence, 31 g ai/ha, visual injury after approx. 10 d, 0 to 100 scale, 0 no effect, 100 complete control, read-out: Plant response rating, Blackgrass", "result": 0, "unit": "%"}, {"measurement": "pest or weed control at 250 g/ha", "setting": "[9]", "result": 80, "unit": "%"}, {"measurement": "pest or weed control at 250 g/ha", "setting": "[10]", "result": 0, "unit": "%"}, {"measurement": "pest or weed control at 250 g/ha", "setting": "rice (Oryra sativa)", "result": 0, "unit": "%"}, {"measurement": "pest or weed control at 250 g/ha", "setting": "[11]", "result": 95, "unit": "%"}, {"measurement": "pest or weed control at 31 g/ha", "setting": "[12]; 31 g ai/ha, Preemergence", "result": 10, "unit": "%"}, {"measurement": "pest or weed control at 125 g/ha", "setting": "[12]; [18]", "result": 90, "unit": "%"}, {"measurement": "pest or weed control at 31 g/ha", "setting": "Kochia (Kochia scoparia) [13]; 31 g ai/ha, Preemergence", "result": 20, "unit": "%"}, {"measurement": "pest or weed control at 125 g/ha", "setting": "Kochia (Kochia scoparia) [13]; [18]", "result": 30, "unit": "%"}, {"measurement": "pest or weed control at 31 g/ha", "setting": "[14]; 31 g ai/ha, Preemergence", "result": 0, "unit": "%"}, {"measurement": "pest or weed control at 125 g/ha", "setting": "[14]; [18]", "result": 0, "unit": "%"}, {"measurement": "pest or weed control at 31 g/ha", "setting": "[15]; 31 g ai/ha, Preemergence", "result": 60, "unit": "%"}, {"measurement": "pest or weed control at 125 g/ha", "setting": "[15]; [18]", "result": 100, "unit": "%"}, {"measurement": "pest or weed control at 31 g/ha", "setting": "[16]; 31 g ai/ha, Preemergence", "result": 0, "unit": "%"}, {"measurement": "pest or weed control at 125 g/ha", "setting": "[16]; [18]", "result": 0, "unit": "%"}, {"measurement": "pest or weed control at 31 g/ha", "setting": "[17]; 31 g ai/ha, Preemergence", "result": 30, "unit": "%"}, {"measurement": "pest or weed control at 125 g/ha", "setting": "[17]; [18]", "result": 0, "unit": "%"}]}
